{
  "source": "ChEMBL document CHEMBL1144633",
  "about": "“Affinity-based ranking of ligands for DPP-4 from mixtures” (Bioorg Med Chem Lett, 2007)",
  "data": [
    {"biological_target": "Dipeptidyl peptidase 4 (Homo sapiens, UniProt P27487)", "sequence (P27487 whole entry)": "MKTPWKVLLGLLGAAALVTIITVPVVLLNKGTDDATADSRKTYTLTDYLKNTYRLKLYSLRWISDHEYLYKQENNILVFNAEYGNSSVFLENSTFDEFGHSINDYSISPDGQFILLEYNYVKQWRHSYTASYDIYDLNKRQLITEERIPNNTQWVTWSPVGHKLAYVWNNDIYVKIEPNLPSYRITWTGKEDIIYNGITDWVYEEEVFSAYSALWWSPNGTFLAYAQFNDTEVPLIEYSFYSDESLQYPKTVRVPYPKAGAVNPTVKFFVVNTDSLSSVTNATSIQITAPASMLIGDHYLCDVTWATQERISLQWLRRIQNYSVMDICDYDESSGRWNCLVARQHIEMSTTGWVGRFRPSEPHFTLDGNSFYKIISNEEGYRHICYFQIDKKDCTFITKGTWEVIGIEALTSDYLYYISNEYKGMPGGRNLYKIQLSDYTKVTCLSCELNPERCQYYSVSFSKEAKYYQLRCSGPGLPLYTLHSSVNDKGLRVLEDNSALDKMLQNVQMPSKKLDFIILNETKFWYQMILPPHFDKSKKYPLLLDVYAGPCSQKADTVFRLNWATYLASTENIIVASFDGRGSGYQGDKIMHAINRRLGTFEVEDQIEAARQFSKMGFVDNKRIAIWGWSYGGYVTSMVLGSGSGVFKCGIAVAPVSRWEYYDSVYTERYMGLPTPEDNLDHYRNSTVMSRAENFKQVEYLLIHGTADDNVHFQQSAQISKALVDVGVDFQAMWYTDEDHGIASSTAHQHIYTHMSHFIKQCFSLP", "test": "Inhibition of DPP4", "units": {"IC50": "nM"}, "values": [
      {"compound": "C=COCC(=O)N1CCN(C(=O)C[C@H](N)Cc2ccccc2F)CC1", "IC50": 2210},
      {"compound": "O=C([C@@H]1Cc2ccc(-c3cccc(-c4nnn[nH]4)c3)cc2CN1)N1CC[C@H](F)C1", "IC50": 310},
      {"compound": "N[C@@H](CC(=O)N1CCn2cc(C(F)(F)F)nc2C1c1ccc(F)cc1)Cc1ccc(F)c(F)c1", "note": "(stereo partly specified)", "IC50": 1400},
      {"compound": "N[C@@H](CC(=O)N1CCC[C@H]1C(=O)NCc1ccc(C(F)(F)F)cc1)Cc1ccccc1F", "IC50": 731},
      {"compound": "CSc1cc(F)c(C[C@@H](N)CC(=O)N2CCn3c(nnc3C(F)(F)F)C2)cc1F", "IC50": 780},
      {"compound": "N[C@H](C(=O)N1CCC(F)(F)C1)[C@@H]1CCN(S(=O)(=O)c2ccc(OC(F)(F)F)cc2)C1", "IC50": 995},
      {"compound": "N[C@@H](CC(=O)N1CCn2nccc21)Cc1cc(F)ccc1F", "IC50": 1320},
      {"compound": "COc1cc(CNC(=O)[C@@H]2CCCN2C(=O)C[C@H](N)Cc2ccccc2F)ccc1O", "IC50": 864},
      {"compound": "C=CCC(C(=O)N1CCn2c(nnc2C(F)(F)F)C1)[C@H](N)Cc1cc(F)c(F)cc1F", "note": "(stereo partly specified)", "IC50": 2000},
      {"compound": "CC(C)[C@H](Oc1ccc(CNC(=O)[C@@H]2CCCN2C(=O)C[C@H](N)Cc2cc(F)c(F)c(F)c2F)cc1)C(=O)O", "IC50": 8},
      {"compound": "N[C@@H](CC(=O)N1CCN(c2ccc(Cl)cc2)CC1)Cc1ccccc1F", "IC50": 1250}
    ]}
  ]
}
